# Reference: patent publication US9789146B1, “Synthesis of adansonia digitata nanoparticles” (KING SAUD UNIVERSITY, priority 2017, dated 2017)
# What was measured:
# Test in all cases: Antimicrobial activity, diffusion agar technique
# Assay type in all cases: cell-based
# Conditions in all cases: well diameter 6.0 mm, 100 μl tested
# [1] = test system: Aspergillus fumigatus (RCMB 02567)
# Description: (§1) The antimicrobial effect of the Adansonia digitata nanoparticles was evaluated against different gram positive and gram negative bacteria as well as fungi. The test was done using the diffusion agar technique and the well diameter was 6.0 mm (100 μl was tested). The mean zone of inhibition in mm±Standard deviation beyond well diameter (6 mm) produced on a range of environmental and clinically pathogenic microorganisms.
# [2] = test system: Streptococcus pneumoniae (RCMB 010011)
# Description: as §1
# [3] = test system: Bacillis subtilis (RCMB 010068)
# Description: as §1
# [4] = test system: Escherichia coli (RCMB 010054)
# Description: as §1
molecule,measurement,setting,value
C[C@@H]1[C@H](O)[C@@H](C)/C=C/C=C/C=C/C=C/C=C/C=C/C=C/[C@H](O[C@@H]2O[C@H](C)[C@@H](O)[C@H](N)[C@@H]2O)C[C@@H]2O[C@](O)(C[C@@H](O)C[C@@H](O)[C@H](O)CC[C@@H](O)C[C@@H](O)CC(=O)O[C@H]1C)C[C@H](O)[C@H]2C(=O)O [Amphotericin B],mean zone of inhibition ± Standard deviation beyond well diameter,[1],21.7 ± 1.5 mm
CC1(C)S[C@@H]2[C@H](NC(=O)[C@H](N)c3ccccc3)C(=O)N2[C@H]1C(=O)O [Ampicillin],mean zone of inhibition ± Standard deviation beyond well diameter,[2],21.0 ± 1.0 mm
same,mean zone of inhibition ± Standard deviation beyond well diameter,[3],31.3 ± 1.5 mm
Gentamicin,mean zone of inhibition ± Standard deviation beyond well diameter,[4],20.3 ± 0.58 mm
